Patent US20100004128A1, “HERBICIDAL ISOXAZOLINE COMPOUNDS” (SYNGENTA CROP PROTECTION, INC., priority 2006, published 2010)

Test system: Monocotyledonous and dicotyledonous test plants
Test: Herbicidal action, application pre-emergence
Type: in vivo
Parameters: key: 10=total damage to plant; 0=no damage to plant
Settings: spray solution 1000 mg/l, scale 0-10; for Herbicidal action (damage score) AGSTE: Agrostis tenius; for Herbicidal action (damage score) AMARE: Amaranthus retroflexus; for Herbicidal action (damage score) DIGSA: Digitaria sanguinalis; for Herbicidal action (damage score) POATR: Poa trivialis; for Herbicidal action (damage score) SETFA: Setaria faberi
Experimental: Monocotyledonous and dicotyledonous test plants were sown in sterilised standard soil in seed trays each having 96 cells. After one day (pre-emergence) or after 8 to 9 days cultivation (post-emergence) under controlled conditions in a climatic chamber (cultivation at 23/17° C., day/night; 13 hours light; 50-60% humidity; after application at 24/19° C., day/night), the plants were treated with an aqueous spray solution of 1000 mg/l of the active ingredient used (incl. 10% DMSO as solvent). The plants were grown on in the climatic chamber until the test was evaluated (10=total damage to plant, 0=no damage to plant) after 9 or 13 days.

For `COCCn1nc(C(F)[S+]([O-])C2=NOC(C)(C)C2)c(C(F)(F)F)n1` (mixture of isomers) [1.24], the “Herbicidal action (damage score) AGSTE” value was 10, the “Herbicidal action (damage score) AMARE” value was 10 and the “Herbicidal action (damage score) DIGSA” value was 10. For the same compound, the “Herbicidal action (damage score) POATR” value was 10 and the “Herbicidal action (damage score) SETFA” value was 9.

In the case of `CC1(C)CC([S+]([O-])C(F)c2nn(C3CCCC3)nc2C(F)(F)F)=NO1` (mixture of isomers) [1.30], the “Herbicidal action (damage score) AGSTE” value is reported as 10, the “Herbicidal action (damage score) AMARE” value is reported as 10 and the “Herbicidal action (damage score) DIGSA” value is reported as 9. The “Herbicidal action (damage score) POATR” value was 10 and the “Herbicidal action (damage score) SETFA” value was 8.

For `C=CCn1nc(C(F)[S+]([O-])C2=NOC(C)(C)C2)c(C(F)(F)F)n1` (mixture of isomers) [1.33], the “Herbicidal action (damage score) AGSTE” value was 10, the “Herbicidal action (damage score) AMARE” value was 4 and the “Herbicidal action (damage score) DIGSA” value was 10. The “Herbicidal action (damage score) POATR” value was 10 and the “Herbicidal action (damage score) SETFA” value was 6.

For `CCn1ncc(C(F)[S+]([O-])C2=NOC(C)(C)C2)n1` (mixture of isomers) [1.39], the “Herbicidal action (damage score) AGSTE” value was 10, the “Herbicidal action (damage score) AMARE” value was 9 and the “Herbicidal action (damage score) DIGSA” value was 9. For the same compound, the “Herbicidal action (damage score) POATR” value was 10 and the “Herbicidal action (damage score) SETFA” value was 9.

For `CC1(C)CC([S+]([O-])C(F)c2cn(C(C)(C)C)nn2)=NO1` (mixture of isomers) [Compound No. 2.03], the “Herbicidal action (damage score) AGSTE” value was 8, the “Herbicidal action (damage score) AMARE” value was 2 and the “Herbicidal action (damage score) DIGSA” value was 9. For the same compound, the “Herbicidal action (damage score) POATR” value was 4 and the “Herbicidal action (damage score) SETFA” value was 5.

In the case of `Cn1nnc(Br)c1C(F)[S+]([O-])C1=NOC(C)(C)C1` (mixture of isomers) [Compound No. 3.05], the “Herbicidal action (damage score) AGSTE” value is reported as 10, the “Herbicidal action (damage score) AMARE” value is reported as 8 and the “Herbicidal action (damage score) DIGSA” value is reported as 10. For the same compound, the “Herbicidal action (damage score) POATR” value was 10 and the “Herbicidal action (damage score) SETFA” value was 9.

With `Cn1nc(C(F)(F)F)c(C(F)(Cl)S(=O)(=O)C2=NOC(C)(C)C2)n1` (racemic) [1.10] the “Herbicidal action (damage score) AGSTE” value was 10, the “Herbicidal action (damage score) AMARE” value was 10 and the “Herbicidal action (damage score) DIGSA” value was 10. For the same compound, the “Herbicidal action (damage score) POATR” value was 10 and the “Herbicidal action (damage score) SETIT” value (Setaria italica) was 10.

With `CCc1nn(CC)nc1C(F)S(=O)(=O)C1=NOC(C)(C)C1` (racemic) [1.12] the “Herbicidal action (damage score) AGSTE” value was 10, the “Herbicidal action (damage score) AMARE” value was 10 and the “Herbicidal action (damage score) DIGSA” value was 9. The “Herbicidal action (damage score) POATR” value was 10 and the “Herbicidal action (damage score) SETFA” value was 9.

For `CC(C)n1nc(C(F)(F)F)c(C(F)(F)[S+]([O-])C2=NOC(C)(C)C2)n1` (racemic) [1.18], the “Herbicidal action (damage score) AGSTE” value was 10, the “Herbicidal action (damage score) AMARE” value was 10 and the “Herbicidal action (damage score) DIGSA” value was 10. For the same compound, the “Herbicidal action (damage score) POATR” value was 10 and the “Herbicidal action (damage score) SETFA” value was 9.

`Cc1nn(C(F)F)nc1C(F)(F)[S+]([O-])C1=NOC(C)(C)C1` (racemic) [1.22] was tested, and the “Herbicidal action (damage score) AGSTE” value was 10, the “Herbicidal action (damage score) AMARE” value was 10 and the “Herbicidal action (damage score) DIGSA” value was 10. The “Herbicidal action (damage score) POATR” value was 10 and the “Herbicidal action (damage score) SETFA” value was 9.

With `COCCn1nc(C(F)(F)F)c(C(F)(F)[S+]([O-])C2=NOC(C)(C)C2)n1` (racemic) [1.25] the “Herbicidal action (damage score) AGSTE” value was 10, the “Herbicidal action (damage score) AMARE” value was 10 and the “Herbicidal action (damage score) DIGSA” value was 10. The “Herbicidal action (damage score) POATR” value was 10 and the “Herbicidal action (damage score) SETFA” value was 9.

With `CCc1nn(C)nc1C(F)(F)[S+]([O-])C1=NOC(C)(C)C1` (racemic) [1.27] the “Herbicidal action (damage score) AGSTE” value was 10, the “Herbicidal action (damage score) AMARE” value was 10 and the “Herbicidal action (damage score) DIGSA” value was 10. For the same compound, the “Herbicidal action (damage score) POATR” value was 10 and the “Herbicidal action (damage score) SETFA” value was 9.

With `CC1(C)CC(S(=O)(=O)C(F)c2nn(C3CCCC3)nc2C(F)(F)F)=NO1` (racemic) [1.28] the “Herbicidal action (damage score) AGSTE” value was 10, the “Herbicidal action (damage score) AMARE” value was 9 and the “Herbicidal action (damage score) DIGSA” value was 9. For the same compound, the “Herbicidal action (damage score) POATR” value was 10 and the “Herbicidal action (damage score) SETFA” value was 8.
